In ChEMBL document CHEMBL3352553, “Discovery of (E)-5-(benzylideneamino)-1H-benzo[d]imidazol-2(3H)-one derivatives as inhibitors for PTK6” (Bioorg Med Chem Lett, 2014):

Columns and labels:
[1] = molecular target: T1, Protein-tyrosine kinase 6 (Homo sapiens, UniProt Q13882); assay: Inhibition of GST-tagged PTK6 (unknown origin) assessed as phosphorylated tyrosines after 20 mins by ELISA
[2] = molecular target: T1, Protein-tyrosine kinase 6; assay: Inhibition of PTK6 (unknown origin) expressed in HEK293 cells assessed as decrease in tyrosine phosphorylation by chemiluminescence assay; type: cell-based
[3] = molecular target: Proto-oncogene tyrosine-protein kinase Src (Homo sapiens, UniProt P12931); assay: Inhibition of Src (unknown origin) expressed in HEK293 cells assessed as decrease in phosphorylation by chemiluminescence assay; type: cell-based
[4] = tested on: HFF; assay: Cytotoxicity against human foreskin fibroblast after 24 hrs by MTT assay; type: cell-based
[5] = molecular target: Tyrosine-protein kinase Fyn (Homo sapiens, UniProt P06241); assay: Inhibition of Fyn (unknown origin) expressed in HEK293 cells assessed as decrease in phosphorylation by chemiluminescence assay; type: cell-based
[6] = molecular target: T2, Cytoplasmic tyrosine-protein kinase BMX (Homo sapiens, UniProt P51813); assay: Inhibition of Bmx (unknown origin) expressed in HEK293 cells assessed as decrease in phosphorylation by chemiluminescence assay; type: cell-based
T2 sequence (P51813 whole entry): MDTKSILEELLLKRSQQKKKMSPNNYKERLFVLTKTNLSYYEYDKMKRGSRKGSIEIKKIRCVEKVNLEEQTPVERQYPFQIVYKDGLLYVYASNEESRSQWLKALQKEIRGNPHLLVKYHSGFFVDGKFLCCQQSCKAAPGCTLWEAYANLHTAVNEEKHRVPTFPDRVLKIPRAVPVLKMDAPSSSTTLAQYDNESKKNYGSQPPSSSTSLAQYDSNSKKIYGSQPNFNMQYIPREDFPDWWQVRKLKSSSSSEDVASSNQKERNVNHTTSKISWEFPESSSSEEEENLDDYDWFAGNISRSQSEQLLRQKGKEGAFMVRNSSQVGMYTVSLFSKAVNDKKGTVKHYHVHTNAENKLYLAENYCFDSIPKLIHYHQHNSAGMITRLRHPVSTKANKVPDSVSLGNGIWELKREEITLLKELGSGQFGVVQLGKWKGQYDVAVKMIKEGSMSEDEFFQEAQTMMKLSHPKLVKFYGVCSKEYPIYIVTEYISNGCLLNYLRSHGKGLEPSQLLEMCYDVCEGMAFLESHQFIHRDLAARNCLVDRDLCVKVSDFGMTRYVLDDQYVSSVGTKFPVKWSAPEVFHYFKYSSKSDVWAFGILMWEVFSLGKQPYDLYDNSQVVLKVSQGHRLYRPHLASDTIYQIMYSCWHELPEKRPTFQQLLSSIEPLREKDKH

[7] = tested on: HFF; assay: Cytotoxicity against human foreskin fibroblast up to 100 uM after 24 hrs by MTT assay; type: cell-based
[8] = molecular target: Epidermal growth factor receptor (Homo sapiens, UniProt P00533)
Epidermal growth factor receptor, sequence (P00533 whole entry): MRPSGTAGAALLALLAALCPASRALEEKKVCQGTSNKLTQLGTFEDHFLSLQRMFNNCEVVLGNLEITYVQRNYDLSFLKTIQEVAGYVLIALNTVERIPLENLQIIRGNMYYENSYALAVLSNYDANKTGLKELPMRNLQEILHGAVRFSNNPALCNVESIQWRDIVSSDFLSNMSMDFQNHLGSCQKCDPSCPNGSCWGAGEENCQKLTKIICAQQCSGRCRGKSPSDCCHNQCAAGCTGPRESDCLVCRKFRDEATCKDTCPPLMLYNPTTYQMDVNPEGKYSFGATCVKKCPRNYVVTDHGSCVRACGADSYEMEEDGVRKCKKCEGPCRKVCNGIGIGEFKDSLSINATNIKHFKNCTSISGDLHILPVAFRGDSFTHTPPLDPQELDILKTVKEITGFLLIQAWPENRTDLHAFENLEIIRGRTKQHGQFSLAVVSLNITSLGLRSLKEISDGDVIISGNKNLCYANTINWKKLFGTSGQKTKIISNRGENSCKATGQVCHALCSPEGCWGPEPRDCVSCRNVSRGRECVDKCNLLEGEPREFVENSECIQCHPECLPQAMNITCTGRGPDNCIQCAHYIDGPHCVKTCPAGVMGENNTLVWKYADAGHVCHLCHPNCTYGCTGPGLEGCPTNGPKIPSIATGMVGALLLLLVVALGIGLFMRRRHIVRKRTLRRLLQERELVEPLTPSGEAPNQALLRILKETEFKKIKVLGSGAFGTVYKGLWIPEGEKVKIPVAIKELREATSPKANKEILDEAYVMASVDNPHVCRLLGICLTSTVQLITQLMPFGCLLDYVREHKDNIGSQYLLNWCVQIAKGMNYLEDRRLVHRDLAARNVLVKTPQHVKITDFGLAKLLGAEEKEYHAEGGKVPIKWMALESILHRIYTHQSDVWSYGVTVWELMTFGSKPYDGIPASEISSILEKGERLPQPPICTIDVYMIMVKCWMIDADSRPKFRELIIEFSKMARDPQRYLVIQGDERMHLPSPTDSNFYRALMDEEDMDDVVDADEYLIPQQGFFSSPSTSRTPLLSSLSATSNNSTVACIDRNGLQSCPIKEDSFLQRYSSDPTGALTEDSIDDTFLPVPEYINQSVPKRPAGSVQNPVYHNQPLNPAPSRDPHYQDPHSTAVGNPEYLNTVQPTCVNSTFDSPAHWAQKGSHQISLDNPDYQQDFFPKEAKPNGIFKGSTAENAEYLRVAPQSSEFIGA
Description: Inhibition of EGFR (unknown origin) expressed in HEK293 cells assessed as decrease in phosphorylation by chemiluminescence assay

Tyrosine-protein kinase Fyn, sequence (P06241 whole entry): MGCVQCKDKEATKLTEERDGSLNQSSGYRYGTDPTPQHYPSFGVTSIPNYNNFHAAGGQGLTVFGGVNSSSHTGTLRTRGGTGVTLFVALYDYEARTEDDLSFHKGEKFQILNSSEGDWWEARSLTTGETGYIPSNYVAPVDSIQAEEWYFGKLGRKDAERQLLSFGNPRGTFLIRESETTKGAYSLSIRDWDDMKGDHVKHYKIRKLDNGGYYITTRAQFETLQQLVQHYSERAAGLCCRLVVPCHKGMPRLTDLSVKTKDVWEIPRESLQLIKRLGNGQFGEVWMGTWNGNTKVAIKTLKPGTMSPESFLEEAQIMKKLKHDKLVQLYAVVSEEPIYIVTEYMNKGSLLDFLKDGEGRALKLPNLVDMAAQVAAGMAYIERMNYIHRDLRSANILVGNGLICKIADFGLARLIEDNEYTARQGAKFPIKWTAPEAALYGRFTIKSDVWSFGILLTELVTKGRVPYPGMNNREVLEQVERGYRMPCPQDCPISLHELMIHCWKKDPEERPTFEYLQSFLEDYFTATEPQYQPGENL
T1 sequence (Q13882 whole entry): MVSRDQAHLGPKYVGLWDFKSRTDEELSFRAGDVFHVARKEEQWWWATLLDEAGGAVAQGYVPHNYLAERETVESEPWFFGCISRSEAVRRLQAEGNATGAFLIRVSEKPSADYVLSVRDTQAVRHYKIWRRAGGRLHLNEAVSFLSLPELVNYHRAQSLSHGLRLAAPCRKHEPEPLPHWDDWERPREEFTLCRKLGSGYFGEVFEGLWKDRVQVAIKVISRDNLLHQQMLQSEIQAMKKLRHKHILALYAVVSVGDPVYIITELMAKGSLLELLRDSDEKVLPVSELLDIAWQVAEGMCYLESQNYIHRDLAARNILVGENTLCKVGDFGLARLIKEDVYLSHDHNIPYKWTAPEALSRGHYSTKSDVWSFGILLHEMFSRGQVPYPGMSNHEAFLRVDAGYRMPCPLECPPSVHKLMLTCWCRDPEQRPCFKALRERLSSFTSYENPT
Proto-oncogene tyrosine-protein kinase Src, sequence (P12931 2-536 limits assumed): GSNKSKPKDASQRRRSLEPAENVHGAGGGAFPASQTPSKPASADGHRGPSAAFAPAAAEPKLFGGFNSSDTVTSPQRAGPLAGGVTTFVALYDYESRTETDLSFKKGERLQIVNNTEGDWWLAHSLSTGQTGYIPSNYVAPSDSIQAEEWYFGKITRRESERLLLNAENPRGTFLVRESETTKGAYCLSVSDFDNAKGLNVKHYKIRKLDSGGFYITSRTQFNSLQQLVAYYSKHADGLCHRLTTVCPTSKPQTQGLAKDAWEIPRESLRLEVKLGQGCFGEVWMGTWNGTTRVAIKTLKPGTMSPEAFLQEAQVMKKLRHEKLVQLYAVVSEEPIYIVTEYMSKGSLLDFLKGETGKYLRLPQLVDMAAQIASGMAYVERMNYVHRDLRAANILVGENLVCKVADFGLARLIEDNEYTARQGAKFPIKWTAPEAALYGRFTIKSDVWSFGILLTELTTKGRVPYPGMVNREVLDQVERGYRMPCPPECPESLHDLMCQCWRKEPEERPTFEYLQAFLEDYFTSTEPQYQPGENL

| SMILES | IC50 [1] [µM] | IC50 [2] [µM] | further results |
| --- | --- | --- | --- |
| O=c1[nH]c2ccc(/N=C/c3cc(Br)ccc3O)cc2[nH]1 | 1.9 | > 100 | – |
| O=c1[nH]c2ccc(/N=C/c3ccccc3)cc2[nH]1 | > 10 | – | – |
| O=c1[nH]c2ccc(/N=C/c3ccccc3O)cc2[nH]1 | 2 | > 100 | – |
| COc1ccc(Br)cc1/C=N/c1ccc2[nH]c(=O)[nH]c2c1 | 17.1 | > 100 | – |
| COc1cc(Br)cc(/C=N/c2ccc3[nH]c(=O)[nH]c3c2)c1O | 4.73 | 52.4 | – |
| COc1cc(Br)cc(/C=N/c2ccc3[nH]c(=O)[nH]c3c2)c1OC | > 10 | – | – |
| O=c1[nH]c2ccc(/N=C/c3cc(Cl)ccc3O)cc2[nH]1 | 1.41 | > 100 | – |
| COc1cccc(/C=N/c2ccc3[nH]c(=O)[nH]c3c2)c1O | > 10 | – | – |
| COc1cc(Cl)cc(/C=N/c2ccc3[nH]c(=O)[nH]c3c2)c1O | 1.68 | 74 | – |
| COc1cc(I)cc(/C=N/c2ccc3[nH]c(=O)[nH]c3c2)c1O | 4.98 | 58.1 | – |
| CCOc1cc(Br)cc(/C=N/c2ccc3[nH]c(=O)[nH]c3c2)c1O | 5.83 | 23.5 | – |
| CCOc1cccc(/C=N/c2ccc3[nH]c(=O)[nH]c3c2)c1O | > 10 | – | – |
| CCOc1cc(Cl)cc(/C=N/c2ccc3[nH]c(=O)[nH]c3c2)c1O | 1.99 | 51.2 | – |
| O=c1[nH]c2ccc(/N=C/c3cc(Br)cc(Br)c3O)cc2[nH]1 | 5.6 | 49 | – |
| O=c1[nH]c2ccc(/N=C/c3ccc(O)cc3O)cc2[nH]1 | > 10 | – | – |
| COc1ccc(/C=N/c2ccc3[nH]c(=O)[nH]c3c2)c(O)c1 | > 10 | – | – |
| COc1ccc(Br)c(/C=N/c2ccc3[nH]c(=O)[nH]c3c2)c1O | 3.9 | 16.6 | – |
| COc1cc(Br)c(Br)c(CNc2ccc3[nH]c(=O)[nH]c3c2)c1O | > 10 | – | – |
| CCOc1cc(Br)c(Br)c(CNc2ccc3[nH]c(=O)[nH]c3c2)c1O | 4.79 | – | – |
| N#C/C(=C\c1c[nH]c2ccccc12)C(=O)c1ccc(O)c(O)c1 | 2.32 | 53.2 | – |
| O=c1c(-c2ccc(O)cc2)coc2cc(O)cc(O)c12 [GENISTEIN] | – | – | IC50 [3]: > 100 µM; IC50 [5]: 58.2 µM; IC50 [6]: 68 µM |

More lines, in order of falling IC50 [1], values ahead:

| IC50 [1] [µM] | IC50 [2] [µM] | SMILES | further results |
| --- | --- | --- | --- |
| 1.35 | 24.5 | O=c1[nH]c2ccc(/N=C/c3c(O)cccc3Br)cc2[nH]1 | – |
| 1.3 | 4.61 | COc1cc(Br)c(Br)c(/C=N/c2ccc3scnc3c2)c1O | – |
| 1.29 | 3.48 | CCOc1cc(Cl)c(Cl)c(/C=N/c2ccc3[nH]c(=O)[nH]c3c2)c1O | – |
| 1.17 | 2.54 | CCOc1cc(Br)c(Br)c(/C=N/c2ccc3scnc3c2)c1O | – |
| 0.52 | 1.6 | CCOc1cc(Br)c(Br)c(/C=N/c2ccc3[nH]c(=O)[nH]c3c2)c1O | IC50 [3]: > 100 µM; IC50 [5]: 68.5 µM; IC50 [6]: 42.3 µM; Activity [7]: Non-toxic; IC50 [8]: 76.7 µM |
| 0.41 | 11.8 | O=c1[nH]c2ccc(/N=C/c3c(O)c(Br)cc(Br)c3Br)cc2[nH]1 | – |
| 0.36 | 7.58 | CCOc1cc(Br)c(Br)c(/C=N/c2ccc3[nH]ccc3c2)c1O | – |
| 0.27 | 3.49 | COc1cc(Br)c(Br)c(/C=N/c2ccc3[nH]ccc3c2)c1O | – |
| 0.2 | 5.52 | COc1cc(Br)c(Br)c(/C=N/c2ccc3[nH]cnc3c2)c1O | – |
| 0.13 | 4.71 | CCOc1cc(Br)c(Br)c(/C=N/c2ccc3[nH]cnc3c2)c1O | – |
| 0.12 | 1.46 | COc1cc(Br)c(Br)c(/C=N/c2ccc3[nH]c(=O)[nH]c3c2)c1O | IC50 [3]: > 100 µM; Activity [4]: Toxic; IC50 [5]: 38.7 µM; IC50 [6]: 38.6 µM; Activity [7]: Toxic; IC50 [8]: 88.7 µM |
